B1: GDNF: human GDNF (PeproTech), glial cell line-derived neurotrophic factor (protein, UniProt P39905 78-211, looked up)
Glial cell line-derived …: SPDKQMAVLPRRERNRQAAAANPENSRGKGRRGQRGKNRGCVLTAIHLNVTDLGLGYETKEELIFRYCSGSCDAAETTYDKILKNLSRNRRLVSDKVGQACCRPIAFDDDLSFLDDNLVYHILRKHSAKRCGCI

Key:
[1] = system: NGF-deprived sympathetic neurons; test: Survival assay of NGF-deprived sympathetic neurons; type: cell-based, rat; parameters: protection of NGF-deprived neurons (FIG. 5B legend): dose or concentration left out as unconfirmed
Experimental: (§1) Briefly, the neurons of postnatal day-1-2 Han/Wi strain rats were grown six days in vitro on polyornithine -laminin-coated dishes or glass coverslips with 100 ng/ml of human GDNF (PeproTech) or 30 ng/ml of 2.5 S mouse NGF (Promega). […] To reduce the number of nonneuronal cells, 1 μM cytosine arabinoside (Sigma-Aldrich) was always included next day after plating, but was not added to factor-deprived neurons. To deprive GDNF, the cultures were washed gently three times with GDNF-free culture medium. To remove NGF, the cultures were washed once with NGF-free medium and function-blocking anti-NGF antibodies (Roche) were added. The compounds of interest were added and initial neurons were counted immediately after neurotrophic factor deprivation. Living neurons were counted daily by a “blind” experimenter not aware of the identity of experimental groups. The following compounds were assayed: broad-range caspase inhibitor boc-aspartyl(OMe) -fluoromethylketone. […] When the compounds were dissolved in DMSO, the same amount of DMSO was always added to the control cultures.
(§2) In all studies described below, the neurons from newborn rat SCG were maintained in sister dishes with GDNF (100 ng/ml) or NGF (30 ng/ml) for six DIV, then deprived of these factors for 48 or 72 hours, and analysed. NGF- and GDNF-responsive neurons were always analysed in parallel and received identical treatment.

[2] = system: GDNF-deprived sympathetic neurons; test: Survival assay of GDNF-deprived sympathetic neurons; type: cell-based, rat; parameters: protection of GDNF-deprived neurons (FIG. 5B legend): dose or concentration left out as unconfirmed
Experimental: as §1, §2

[3] = system: newborn rat sympathetic neurons from the superior cervical ganglion; test: Survival of newly isolated sympathetic neurons maintained with neurotrophic factor; type: cell-based
Experimental: FIGS. 1A, 1B, and 1C. […] (1A) Newly isolated neurons were grown with GDNF (100 ng/ml), NGF (30 ng/ml) or without neurotrophic factors for eight days. The living neurons were counted daily and expressed as percent of initial neurons, counted two hours after plating. The mean±standard error of the mean of three independent cultures is shown for each data point. (1B) Newly isolated neurons were maintained with different doses of GDNF for six days. The living neurons were counted daily and expressed as percent of initial neurons, counted two hours after plating. For comparison, survival with NGF (30 ng/ml) is also shown. […] Living neurons were counted daily and expressed as percent of initial neurons counted immediately after factor deprivation. […]
Briefly, the neurons of postnatal day-1-2 Han/Wi strain rats were grown six days in vitro on polyornithine -laminin-coated dishes or glass coverslips with 100 ng/ml of human GDNF (PeproTech) or 30 ng/ml of 2.5 S mouse NGF (Promega). […] The compounds of interest were added and initial neurons were counted immediately after neurotrophic factor deprivation. Living neurons were counted daily by a “blind” experimenter not aware of the identity of experimental groups. […]
In similar conditions, about 98% of the NGF-maintained neurons had survived (FIG. 1 A). […] NGF- and GDNF-responsive neurons were always analysed in parallel and received identical treatment. […]

[4] = BAF at 50 μM, living neurons counted 72 h after deprivation
[5] = living neurons counted 72 h after treatment and deprivation

Row | Molecule | effect on death of NGF-deprived neurons [1, 4] | protection of NGF-deprived neurons (FIG. 5B legend) [1, 5] | effect on death of GDNF-deprived neurons [2, 4] | protection of GDNF-deprived neurons (FIG. 5B legend) [2, 5] | initially plated neurons survived ([3]; by sixth day in vitro, GDNF 100 ng/ml or NGF 30 ng/ml, percent of initial neurons counted two hours after plating) | saturating concentration for SCG neurons ([3]; dose-dependence study, neurons maintained six days)
1 | COC(=O)CC(NC(=O)OC(C)(C)C)C(=O)CF (stereo not drawn) [BAF, boc-aspartyl(OMe)-fluoromethylketone] | almost completely blocked death | protects | almost completely blocked death | protects |  | 
2 | B1 |  |  |  |  | about 34% | 100 ng/mL

Source: patent publication US7642047B2, “Method of screening cell death modulators” (priority 2003, dated 2010)
